From patent publication US20220267445A1, “Methods and Compositions for Determining Susceptibility to Treatment with Checkpoint Inhibitors” (Novocure GmbH, priority 2021, published 2022)

Legend:
[1] = test system: U87MG, LN428 and LN827 GBM cells; experiment: TTFields-induced cytosolic micronuclei clusters with cGAS and AIM2 recruitment (immunofluorescence, confocal); type: cell-based, human; settings: ribociclib 4.5 μM
Description: FIG. 1C, FIG. 1D, FIG. 1E, and FIG. 1F show exemplary confocal images with z stack showing immunofluorescent staining for cGAS, AIM2, and LAMINA/C with DAPI counter-staining in LN428 GBM cells that were pretreated with either the vehicle (FIG. 1C, FIG. 1E) or ribociclib (4.5 μM) (FIG. 1D, FIG. 1F) to induce G1 arrest, then non-treated (FIG. 1C, FIG. 1D) or treated with TTFields for 24 hours (FIG. 1E,
FIG. 1G provides an exemplary bar graph showing percentages of cells with large cytosolic micronuclei clusters with cGAS and AIM2 recruitment being dependent on TTFields in the 3 indicated GBM cell lines treated as described with respect to FIG. 1C, FIG. 1D, FIG. 1E, and FIG. 1F;
To address this question, cells were pretreated for 24 hours prior to and during a 24 hour exposure to TTFields with ribociclib, a potent inhibitor of cyclin-dependent kinases 4 and 6, to induce G1 arrest^31 (FIG. 1H).
Cells grown on cover slips were fixed with 4% paraformaldehyde for 30 min at 4° C., incubated overnight at 4° C. with different combinations of primary antibodies (dilution 1:500) against indicated antigens and then for 2 hours at room temperature with appropriate fluorochrome-conjugated secondary antibodies, (dilution 1:500). Labeled cells were counterstained with DAPI (Thermo Fisher, Cat #D1306) at 1 μgm/ml and images captured and analyzed, using a Zeiss 800 inverted confocal microscope. […]

LN428 cells = experiment: DNA content analysis by propidium iodide (PI) staining; type: cell-based, human; settings: ribociclib 4.5 μM, 0 and 24 hours

## CN(C)C(=O)c1cc2cnc(Nc3ccc(N4CCNCC4)cn3)nc2n1C1CCCC1 [ribociclib]
[1]; 24 hours prior to and during 24 hour TTFields (200 kHz), all 3 lines
  percentage of cells with cGAS and AIM2-recruited micronuclei clusters after TTFields, G1-arrested cells compared to cycling cells: consistently decreased
[1]; no TTFields
  cluster formation, ribociclib treatment alone: did not increase
LN428 cells
  G1-S arrest: effective G1-S arrest
